Results on three substances are retold here after patent US6624140B1, “Synthetic peptides with antimicrobial and endotoxin neutralizing properties for management of the sepsis syndrome” (Academisch Ziekenhuis Bij de Universiteit van Amsterdam …, priority 1997, dated 2003).

Common to all, as to format: cell-based, human
Test [1] deals with IL-6 production by endotoxin. In words: IL-6 production in diluted whole blood, simultaneous addition of LPS and peptide. The conditions noted are these: LPS 1 ng/ml; concentrations as low as 1 μM; control even at 4-fold higher concentration; heparin 100 I.U/ml. How it is done: FIG. 9. Effect of simultaneous addition of E. coli 0111:B4 LPS and synthetic peptides on IL-6 production in whole blood diluted 1 in 10. Synthetic peptides BP1 or BP2 or the control peptide BPI(85-102) at the concentrations indicated, were added together with E. coli 0111:B4 LPS at 1 ng/ml to diluted whole blood containing heparin at 100 I.U/ml. IL-6 concentration was determined after incubation for 16 h at 37° C. Each value is the mean of triplicate experiments. Controls contained no added peptide.
The endotoxin neutralizing activities of the synthetic peptides of the invention were evaluated by investigating the effect on LPS-stimulated release of the pro-inflammatory cytokines, tumor necrosis factor alpha (TNF-α), interleukin-6 (IL-6) or interleukin-8 (IL-8) in a well characterized in vitro human whole blood bioassay system. In one series of experiments, dilutions of E. coli 0111:B4 LPS from 0.2 to 1 ng/ml were pre-incubated with synthetic peptides at 10 μg/ml concentrations in RPMI medium for 30 min at 20° C. and added to diluted whole blood. Cytokine concentrations in the supernatants were determined after further incubation for 16 h at 37° C. in the presence of 5% CO2 by specific and sensitive ELISA kits (CLB, Amsterdam, The Netherlands). In another series of experiments, the effects of synthetic peptides at concentrations of 2,5, 5 and 10 μg/ml on IL-6 induction by 1 ng/ml 0111:B4 LPS was examined after simultaneous addition of synthetic peptide and LPS to diluted whole blood. […] The control peptide BPI(85-102) was ineffective in reducing cytokine production under these conditions even at a 4-fold higher concentration. This probably reflects the differences in binding affinity for Lipid A of BP1 and BP2 compared with the BPI(85-102) peptide of approximately 5 and 10-fold, respectively. An additional factor which may have influenced binding of the control peptide to endotoxin is the presence of heparin employed as an anti-coagulant at a concentration of 100 I.U/ml in the assay system. […]

The test system of test [2] is IL-6 inducing ability of E. coli 0111:B4 LPS. In words: Effect of heparin on neutralization of IL-6 inducing ability of LPS. The conditions noted are these: for reduction of LPS neutralizing efficacy by heparin: same heparin concentration (0.4 U/ml). How it is done:
FIG. 10. Effect of heparin on the efficacy of neutralization of the IL-6 inducing ability of E. coli 0111:B4 LPS by synthetic peptide or Polymyxin B in whole blood diluted 1 in 10. Synthetic peptides at concentrations of 2 μg/ml or PmB at 1 μg/ml was pre-incubated for 30 min at 37° C. with E. coli 0111:B4 LPS at 1 ng/ml in RPMI medium containing heparin in the concentration range of 0.1 to 100 I.U/ml. The residual cytokine inducing ability of the treated endotoxin was determined in diluted whole blood containing heparin at 2 IU/ml after incubation for 16 h at 37° C. Each value is the mean of triplicate determinations corrected for background. Controls contained only LPS.
The endotoxin neutralizing activities of the synthetic peptides of the invention were evaluated by investigating the effect on LPS-stimulated release of the pro-inflammatory cytokines, tumor necrosis factor alpha (TNF-α), interleukin-6 (IL-6) or interleukin-8 (IL-8) in a well characterized in vitro human whole blood bioassay system. In one series of experiments, dilutions of E. coli 0111:B4 LPS from 0.2 to 1 ng/ml were pre-incubated with synthetic peptides at 10 μg/ml concentrations in RPMI medium for 30 min at 20° C. and added to diluted whole blood. Cytokine concentrations in the supernatants were determined after further incubation for 16 h at 37° C. in the presence of 5% CO2 by specific and sensitive ELISA kits (CLB, Amsterdam, The Netherlands). In another series of experiments, the effects of synthetic peptides at concentrations of 2,5, 5 and 10 μg/ml on IL-6 induction by 1 ng/ml 0111:B4 LPS was examined after simultaneous addition of synthetic peptide and LPS to diluted whole blood. […] The control peptide BPI(85-102) was ineffective in reducing cytokine production under these conditions even at a 4-fold higher concentration. This probably reflects the differences in binding affinity for Lipid A of BP1 and BP2 compared with the BPI(85-102) peptide of approximately 5 and 10-fold, respectively. An additional factor which may have influenced binding of the control peptide to endotoxin is the presence of heparin employed as an anti-coagulant at a concentration of […] in the assay system. […] On this basis, it was predicted that the extent of reduction of endotoxin neutralizing efficacy would be a function of the differences in affinity between peptides for endotoxin and heparin. To verify this hypothesis, a series of experiments to determine the effect of increasing heparin concentrations on the efficacy of endotoxin neutralization during pre-incubation of synthetic peptide and E. coli 0111:B4 LPS were performed. FIG. 10 illustrates a dose-dependent suppression of endotoxin neutralizing activity of the synthetic peptides by heparin as exemplified by a reduction of IL-6 inhibition. […]

The test system of a further test is TNF-α production. In words: TNF-α in whole blood ex vivo after pre-incubation of LPS with peptide. Conditions: 1 to 10 μg/ml pre-incubated with 1 ng/ml LPS, even at lowest concentration 1 μg/ml, 4 h at 37° C. The method, then: FIG. 11. Effect of pre-incubation of E. coli 0111:B4 LPS with synthetic peptides or Polymyxin B on TNF-α levels in whole blood ex vivo. The indicated amounts of synthetic, control peptides or PmB were pre-incubated with E. coli 0111:B4 LPS at 1 ng/ml for […] at 23° C., added to whole blood containing heparin at 2 I.U/ml and the TNF-α concentrations determined after incubation for 4 h at 37° C. Each value is the mean of triplicate experiments. Controls only contained LPS.
In addition, the LPS-neutralizing activity of selected synthetic peptides of the invention were compared in a more complex environment of whole blood ex vivo to determine the effect of physiological concentrations of blood components such as plasma proteins, blood cells etc. on the detoxification efficacy. In pre-incubation experiments, concentrations of synthetic peptides, control peptide or PmB from 1 to 10 μg/ml were pre-incubated with 1 ng/ml E. coli 0111:B4 LPS in pyrogen-free saline for 30 min at 23° C., added to venous blood containing heparin at 2 I.U/ml as anti-coagulant and incubated for 4 h at 37° C. TNF-α concentrations were determined in appropriately diluted cell-free supernatants as described before.

No end group written: not given here.

With GRLRKKWKAFKKFLKILAC [BP1], the “inhibition of IL-6 production” value in test [1] is “completely inhibiting”. Moreover, the “reduction of LPS neutralizing efficacy by heparin” value in test [2] was found to be 75%. The “inhibition of TNF-α production” value with TNF-α production was “almost complete inhibition”.
Turning to “GKWKLFKKAFKKFLKILAC-OH [BP2, Gly-Lys-Trp-Lys-Leu-Phe-Lys-Lys-Ala-Phe-Lys-Lys-Phe-Leu-Lys-Ile-Leu-Ala-Cys]”, in test [1], the “inhibition of IL-6 production” value is “completely inhibiting”. For the same substance, the “molar excess of heparin with respect to LPS for 50% competitive inhibition” value in test [2] is recorded as “approximately 10,000 fold”. The “inhibition of TNF-α production” value with TNF-α production is recorded as “almost complete inhibition”.
“Ile-Lys-Ile-Ser-Gly-Lys-Trp-Lys-Ala-Gin-Lys-Arg-Phe-Leu-Lys-Met-Ser-Gly-(Cys) (IKISGKWKAQKRFLKMSGC; listed as Homo sapiens) [BPI(85-102), reference compound]”: the “inhibition of IL-6 production” value in test [1] is listed as “ineffective”. Also, the “reduction of LPS neutralizing efficacy by heparin” value in test [2] is reported as 80%. For the same substance, the “inhibition of TNF-α production” value in the test with TNF-α production was “almost complete inhibition”.
